Results on five substances are retold here after patent publication US5958882A, “Compounds that inhibit T cell proliferation and methods using the same” (Thomas Jefferson University, priority 1996, dated 1999).

One assay has as its system EAE in SJL mice. Briefly: Experimental allergic encephalomyelitis (EAE) model. The note with it: for maximum EAE incidence: SJL mice, untreated 83%; for maximum mean EAE severity grade (0-5): untreated 2.17; for average time of initial onset: untreated day 15.6. The class given is in vivo, mouse. The protocol:
Experimental allergic encephalomyelitis (EAE) is considered to be the best experimental animal model for the study of multiple sclerosis since it shares many of the same clinical and histopathological features as the human disorder. EAE can be elicited in several animal species, including mice, by inoculation of crude CNS tissue extracts, purified MBP, proteolipids, or synthetic polypeptides composed of the active portions of these antigenic molecules. Antigen is administered subcutaneously in conjunction with complete Freund's adjuvant (CFA) and, in our modification of the standard procedure, is given twice on days 0 and 7 for induction (Korngold et al., (1986) Immunogenetics 24:309-315, which is incorporated herein by reference). Symptoms of disease usually occur between 15-19 days after initial immunization and may last for up to 25 days. Mice usually recover from the acute EAE attack, but may relapse at a later time, or are susceptible to an enhanced disease episode upon further immunization.
SJL mice, which are highly susceptible to the induction of acute EAE, were immunized as described in Korngold et al., (1986) Immunogenetics 24:309-315. Accordingly, 1 mg of crude SJL mouse spinal cord homogenate (MSCH) was diluted in 0.15 ml phosphate buffered solution and emulsified in an equal volume of CFA. 0.15 ml of the inoculum was injected subcutaneously in each of two sites on the posterior flank of mice anesthetized with metaphane. A secondary inoculation, similar to the primary, was administered at 7 days. Mice were evaluated daily for symptoms of disease and graded 0-5: 0=no clinical expression of disease; 1=flaccid tail with or without mild hind leg weakness; 2=flaccid tail with moderate hind leg weakness; 3=severe hind leg weakness and mild forelimb weakness; 4=total hind leg paralysis associated with moderate forelimb weakness; and 5=quadriplegia or a moribund state.
The mice were divided into four groups: the first left untreated; the second injected on days 2 and 8 intravenously 10 (i.v.) with 0.5 mg of the D amino acid CDR3-like peptide #1; the third injected on day 12 i.v. with the D amino acid CDR3-like peptide #1; and the fourth injected i.v. on days 2 and 8 with a control D-polypeptide of similar length to the D amino acid CDR3-like peptide #1.
With the same experiment described above, mice from the different treatment groups were scored for the clinical expression of disease. […] The ifferences were statistically significant, by Tukey multiple analysis of variance, between: the untreated and the D amino acid CDR3-like peptide #1 day 2,8 treated group on days 16-19 and 24 […]; the untreated and the D amino acid CDR3-like peptide #1 day 12 treated group on days 16-24 (0.01≤p≤0.05); and the control peptide day 2,8 group and the D amino acid CDR3-like peptide #1 day 2,8 treated group on day 17 (p=0.02).
To investigate whether D amino acid CDR3-like peptide #1 could have an effect upon the development of EAE once symptoms have already appeared and therefore corresponding to the effector phase of the disease, 30 SJL mice were inoculated on days 0 and 7 with MSCH and CFA, as described above. 12 mice that had reached a grade 1 level of clinical EAE expression by day 16 were selected and randomly grouped to be left untreated or treated with 0.5 mg i.v. of D amino acid CDR3-like peptide #1. […] At day 18, the difference between the untreated and treated groups was statistically significant (p=0.003).

Assay [1] relates to lethal GVHD in irradiated DBA/2 mice given B10.D2 CD4+ T cells. In words: GVHD mediated by CD4+ T cells. The following applies: 0.5 mg i.v. on days 0 and 3. It counts as in vivo, mouse. The text has this: The transplantation of B10.D2 CD4+ T cells along with T-cell-depleted bone marrow has been shown previously to induce a lethal GVHD response in irradiated (850 cGy) DBA/2 mice (Korngold and Sprent, (1987) J. Exp. Med. 165:1552-1564).

In assay [2] the test system is human T cells stimulated with PHA. In words: Phytohemagglutinin T cell proliferation assay. The class given is cell-based. The protocol:
The mitogen phytohemagglutinin (PHA) activates T cells by cross-linking CD3/TCR complexes. Human blood is collected from volunteer donors. Lymphocytes are purified by separation over a Ficoll gradient. T cells are separated by rosetting to sheep red blood cells. The enriched T cell population is stimulated with 5 μg/ml phytohemagglutinin (PHA). FIG. 7 illustrates the ability of the D2 peptide analogs to inhibit T cell proliferation in response to PHA stimulation. […] Results are illustrated in FIG. 7.

Assay [3] concerns MLR in a BALB/c (H-2D) anti C3H (H-2K) alloresponse. Briefly: MLR of Example 10 (Table II). It counts as cell-based, mouse. The following applies: MLR without peptide 66000 CPM. The protocol:
(§1) Mice were sacrificed and spleens aseptically removed. Cell suspensions were made by gently pressing spleens through nylon mesh, washing cells with RPMI 1640 and hypotonic lysis of red blood cells. After 3 washes in RPMI 1640, cells were resuspended in complete medium (RPMI 1640, 10% heat inactivated FCS, 2 mM L-glutamine, penicillin/streptomycin, and […]). 1×10^5 responder cells (BALB/c spleen cells) were incubated with 1×10^5 stimulator cells (C3H spleen cells, 2000 rad irradiated) in triplicate in round bottom 96 well plates (final volume 200 μl), and incubated with the indicated concentration of peptide (0.01, 0.1, 1, 10, 100 and 1000 μM peptide) for 5 days at 37° C., 5% CO2. 1 μCi/WELL OF [^3 H] TdR was added 12 hours before thymidine incorporation was measured. Labelled DNA from cells was harvested onto glass fiber filters with a PHD cell harvester (Cambridge, Mass.), and CPM determined by liquid scintillation counting with the use of a 1209 Rackbeta (LKB, Piscataway, N.J.).
A MLR was performed as described in Example 6. h84-101 C--C, SEQ ID NO:4, SEQ ID NO:5, SEQ ID NO:6, SEQ ID NO:11, (SEQ ID NO:4+SEQ ID NO:5), and a monoclonal antibody directed against CD4 (OKT4A) were tested for their effect on MLR in a BALB/c (H-2D) anti C3H (H-2K) alloresponse. MLR was also performed without the addition of peptide or antibody (MLR). Each peptide individually has inhibitory activity to a moderate level (30-50%), but when two analogs are added together (SEQ ID NO:4 and SEQ ID NO:5) the effect was synergistic and the inhibition approached 100%, as compared to a monoclonal antibody directed against CD4 (OKT4A).

In assay [4] the test system is human mixed lymphocyte reaction. Briefly: Human mixed lymphocyte reaction (Example 8, FIG. 3). The class given is cell-based.
For assay [5], the system named is BALB/c spleen cells (responder) with irradiated C3H spleen cells (stimulator). Briefly: Mixed lymphocyte reaction (MLR), BALB/c anti-C3H alloresponse. It counts as cell-based, mouse.
Source text: The mixed lymphocyte reaction (MLR) is the response of one individual's T lymphocytes to those of a major histocompatibility complex (MHC) mismatched donor. CD4+ T cells recognize the foreign MHC proteins and proliferate in response to this, in a manner highly dependent on the CD4 molecule.
as §1
A MLR was performed as described in Example 6. Cells were incubated with a 0.01, 0.1, 1, 10, 100, and 1000 μM of each of the following peptides: SEQ ID NO:1 (mPGPtide), and control peptides, SEQ ID NO:3 (hPGPtides) and SEQ ID NO:13 (mCDR3 scramble). […] Activity was approximately 85000 CPM after the addition of 0.01 μM SEQ ID NO:1, and approximately 30000 CPM after the addition of 200 μM SEQ ID NO:1. […] Activity was approximately 75000 CPM at 0.01 μM SEQ ID NO:3, and approximately 60000 CPM after the addition of 200 μM SEQ ID NO:3. Similarly, activity was approximately 80000 CPM after the addition of 0.01 μM of SEQ ID NO:13, and approximately 90000 CPM after the addition of 200 μM SEQ ID NO:13. […]

Bridges are numbered along the chain shown (N, C = ends). Where no end group is shown, it is not given here. [ ]: non-standard residue; d: D form.

Turning to “CPGPEEKRNELEC ([dC][dP]G[dP][dE][dE][dK][dR][dN][dE][dL][dE][dC]; disulfide 1-13 (inferred)) [D amino acid CDR3-like peptide #1]”, the “EAE severity grade reached, effector phase” value in the assay on EAE in SJL mice (0.5 mg i.v. at grade 1 on day 16, value on day 19, untreated 2.4 by day 18) is listed as 1.17. The “maximum EAE incidence” value in the assay on EAE in SJL mice (i.v. on day 12) came out at 31%; with EAE in SJL mice (i.v. on days 2 and 8 (0.5 mg)), 36%. In the assay with EAE in SJL mice (groups treated on days 2,8 or day 12), the “days of peak EAE severity” value was 19 to 21 days. In the assay on EAE in SJL mice (murine EAE model), the “effect on the course of disease progression (EAE)” value is given as “dramatically intervened in the progression”. Moreover, the “maximum mean EAE severity grade (0-5)” value was determined as 0.75 in the assay on EAE in SJL mice (treated on day 12) and 0.77 in the assay with EAE in SJL mice (treated on days 2,8). Further, the “average time of initial onset” value was 17.0 days in the assay with EAE in SJL mice (treated on day 12) and 17.1 days in the assay on EAE in SJL mice (treated on days 2,8). In assay [1] (untreated 83% lethal GVHD), this substance gave an incidence of survival of 57%. Moreover, the median survival time result in assay [1] (untreated 15 days, experiment ended at 65 days) was “greater than 65 days”.
As to TCTNLQNQKKVECK [SEQ ID NO:4], the “CPM after PHA stimulation” value is on record as 47000 CPM in assay [2] (0.25 μM peptide, 5 μg/ml PHA) and 38000 CPM in assay [2] (250 μg peptide). For the same substance, in assay [3], the CPM was 42000 CPM.
The like results for C*RSPRGKNC [SEQ ID NO:6] were, in that order, 48000 CPM, 39500 CPM and 50000 CPM.
In the same order, the values of LESPPGSSPSV [SEQ ID NO:5] are 53500 CPM, 39500 CPM and 48000 CPM.
Consider CLLVFEVEDQKEEVQGLC [SEQ ID NO:13], for which, in assay [4] (500 μM peptide), the “% CPM of the positive control” value is given as “about 100%”. For the same substance, the “inhibition of the proliferative response of the human MLR” value in assay [4] (0.1-1000 μM) is given as “little or no inhibition”. The “MLR activity (CPM)” value in assay [5] (0.01 μM peptide) is on record as “approximately 80000 CPM”; in assay [5] (200 μM peptide), “approximately 90000 CPM”. Besides, in assay [5] (BALB/c anti-C3H MLR, 5 days, [3H]TdR incorporation), the “inhibitory activity on MLR” value was “little or no activity”.
